Assay results reported in patent publication US20130253179A1, “Functionalization Processes and Reactants Used in Such Processes Using an Isatoic Anhydride or a Derivative Thereof, Biological Molecules Thus Treated and Kits” (priority 2010, published 2013).
Converted amounts (≈) assume the structure as drawn.

Tests used:
[1] = system: model oligoribonucleotide (ORN) with 27 bases; experiment: Functionalisation of a model ORN with 27 bases: functionalisation rate and regiospecificity by HPLC/LC-MS after nuclease P1/alkaline phosphatase hydrolysis; assay type: biochemical; details: compound 30 mM, 1 h at 65° C., 250 mM TEAAc pH 7, 25% DMSO; for Fr (corrected functionalisation rate): ORN 8 nmol
From the text: For this purpose, a fixed quantity of ORN is reacted with an isatoic anhydride derivative conjugated to a molecule of interest (Cy3 IA Me (13)), under various temperature conditions, duration conditions, reaction medium conditions, etc. HPLC monitoring of the reaction at 260 nm makes it possible to detect the disappearance of the peak corresponding to the initial ORN and the appearance of peaks corresponding to acylated ORN. These products have a greater retention time and have an absorption spectrum corresponding to both that of ORN and that of the fluorescent label.
However, for greater precision on the functionalisation site and to precisely evaluate the functionalisation rate (Fr), the ORN population (labelled and unlabelled) is separated from the excess label by precipitation with acetone/lithium perchlorate or by gel permeation (NAP 5™, GE Health Care. Then the ORNs thus obtained are submitted to hydrolysis with the nuclease P1 (Aldrich, Saint Louis, USA) and with the alkaline phosphatase (Aldrich, Saint Louis, USA), in order to hydrolyse the phosphate diester bonds of ORN.
The ORN functionalisation rate (Fr) is evaluated by measuring: • the area corresponding to the terminal mononucleoside adducts (functionalised at 2′ and at 3′) and the area corresponding to the acylated dinucleosides (functionalised internally on 2′OH) • compared to the area of the peaks corresponding to the four ribonucleosides.
The internal/external regiospecificity of the acylation is evaluated by measuring the relative proportion of the areas corresponding to the: • end mono-nucleotides acylated at 2′ and at 3′ • and di-nucleotides acylated internally on 2′OH • which are easily detectable by HPLC.
The mixture is incubated for 60 minutes at 65° C. in an oven on a rack which is temperature-balanced in advance. An HPLC injection (conditions 3) makes it possible to monitor a formation of a certain quantity of acylated ORN as described in FIG. 6. To eliminate the salts and the excess label, the mixture is then purified on Sephadex NAP 5 gel (GE Health Care, Uppsala, Sweden)) and/or triple precipitation in 1.2 mL of a 180 mM Acetone/LiClO4 75/25 mixture. To finish, the pellet is dried with acetone and is evaporated with the centrifugal evaporator (RCT 60, Jouan, St Herblain, France). The residue is then taken up in 33 μL of a H2O/DMSO 85/15 solution and an HPLC injection (conditions 3) is performed in order to verify the proper elimination of the label. There is added to the mixture 2 μL of nuclease P1 (ref.: N8630 Sigma-Aldrich, St Louis, USA) in 1 U/μl solution in its buffer: 20 mM sodium acetate pH 5.5; 1 mM ZnCl2; 50 mM NaCl and 1 μL of 7 u/μl alkaline phosphatase in water (Ref. P7923-2KU Sigma-Aldrich, St Louis, USA). The medium is left at ambient temperature for 4 to 6 hours. It is then injected into HPLC (conditions 3) in order to verify the total hydrolysis of the ORN and in order to analyse the nature of the fragments obtained in accordance with what was described above and as described in FIG. 6.
The functionalisation rate is evaluated with UV at 260 nm by integration of the clusters corresponding to the acylated dinucleotides and to the acylated nucleosides) relative to the clusters corresponding to the four ribonucleosides. The ratio of the population of acylated dinucleotides to the population of acylated nucleosides is evaluated in the same way in order to evaluate the percentage of functionalisation on the 3′ terminal end.
The functionalisation rate values, presented within the framework of this invention, take into account the correction factor which must be applied according to the molar extinction coefficient at 260 nm of each of the nucleosides and according to whether they are nucleosides or dinucleotides. […]

in vitro RNA transcripts = experiment: Detection on Affymetrix DNA chip of biotinylated in vitro RNA transcripts; parameters: species or system human; details: 30 mM compound, 60 mins at 65° C.; background in the order of 30 RFU
Method: The in vitro transcripts are generated by in vitro transcription of the total RNA extracted from blood samples with the aid of the MessageAmp II kit (Reference AM 1751, AMBION, Austin, Tex.). Briefly, after extraction of the total RNA from the blood cells, a first reverse transcription step by the enzyme […] is performed in order to generate the DNA strand complementary to the mRNA (cDNA). The RNA strand is then digested by the RNase H before forming the double strand of cDNA by means of a DNA polymerase. Finally, the antisense RNA (in vitro transcripts) is obtained from the cDNA using the transcriptase T7.
17.6 μL of previously obtained solution of in vitro RNA transcripts (568 ng/μl), 9.4 μL of ultrapure water and 3 μL of 100 mM Zn(OAc)2 pH 6.5 is mixed. This solution is then incubated for 15 mins at 70° C., and then placed immediately into ice.
30 μL of this solution is sampled, to which there is added 30 μL of a potassium phosphate solution (pH 7, 1M), 30 μL of ultrapure water and 30 μl of the compound SBiot IA Me (9) in a 120 mM solution in DMSO. […]
The excess reagent is then removed in the same way as in example 7 by precipitation with isopropanol. As well as depositing on an Affymetrix chip GeneChip Human Genome U133 Plus 2.0 Array, ref 900470, Affymetrix, St Clara, USA), the detection and measurement of the fluorescence.

ODN with 53 bases = experiment: RNA vs DNA chemoselectivity: functionalisation of an ODN with 53 bases; assay type: biochemical; details: compound 30 mM, DMSO/TEAAc buffer 25/75 (250 mM pH 7), 1 h at 65° C.
Method: After precipitation with acetone and hydrolysis with nuclease P1 and alkaline phosphatase, the hydrolysed fragments are analysed by LC-MS, as described in example 3. An example of the chromatograms monitoring the reaction of ODN or ORN with compound 13 is shown in FIG. 9, in which graphs A, B and C respectively represent ORN, ORN functionalised with compound 13 and precipitated, and ORN functionalised with 13, precipitated and hydrolysed. Graphs D, E and F represent the same thing, but with ODN.

physchem = details: water

## O=C(CCCCC1SCC2NC(=O)NC21)Nc1ccc2[nH]c(=O)oc(=O)c2c1 (stereo not shown) [5Biot IA 5, 5-biotin-isatoic anhydride]
[1]
  Fr (corrected functionalisation rate): 1.2%
Solubility in water
  solubility: 1 mM (≈ 0.404 mg/mL)

## Cn1c(=O)oc(=O)c2cc(NC(=O)CCCCC3SCC4NC(=O)NC43)ccc21 (stereo not shown) [5Biot IA Me 9, 1-Methyl-5 biotin-isatoic anhydride]
[1]
  Fr (corrected functionalisation rate): 2.6%
  External/internal regiospecificity (uncorrected ratio of areas acylated mononucleosides / acylated dinucleotides): 55/45
In vitro RNA transcripts
  fluorescence intensities compared with background noise of unfunctionalised target IVTs: very substantially greater than the background noise
ODN with 53 bases
  corrected functionalisation rate of the ODN: 0.1%

## O=C(CCCCC1SCC2NC(=O)NC21)Nc1ccc2c(c1)c(=O)oc(=O)n2CCCS(=O)(=O)O (stereo not shown) [5Biot IA SO3^− 10, 1-propylsulfone-5-biotin-isatoic anhydride]
[1]
  Fr (corrected functionalisation rate): 1.6%
  External/internal regiospecificity (uncorrected ratio of areas acylated mononucleosides / acylated dinucleotides): 60/40

## O=C(CCCCC1SCC2NC(=O)NC21)NCCOCCOCCOCCOCCC(=O)Nc1ccc2[nH]c(=O)oc(=O)c2c1 (stereo not shown) [5Biot PEG4 IA 6, 5-biotin-hexyl ethylene glycol-isatoic anhydride]
[1]
  Fr (corrected functionalisation rate): 3.3%
  External/internal regiospecificity (uncorrected ratio of areas acylated mononucleosides / acylated dinucleotides): 62/38
Solubility in water
  solubility: 19 mM (≈ 12.4 mg/mL)

## Cn1c(=O)oc(=O)c2cc(NC(=O)CCOCCOCCOCCOCCNC(=O)CCCCC3SCC4NC(=O)NC43)ccc21 (stereo not shown) [5Biot PEG4 IA Me 11, 1-methyl-5-biotin-hexyl ethylene glycol-isatoic anhydride]
[1]
  Fr (corrected functionalisation rate): 4%
  External/internal regiospecificity (uncorrected ratio of areas acylated mononucleosides / acylated dinucleotides): 60/40
Solubility in water
  solubility: 50 mM (≈ 33.3 mg/mL)

## O=C(CCCCC1SCC2NC(=O)NC21)NCCOCCOCCOCCOCCC(=O)NCCSSCCC(=O)Nc1ccc2[nH]c(=O)oc(=O)c2c1 (stereo not shown) [5Biot PEG4 SS IA 23]
[1]
  Fr (corrected functionalisation rate): 3.1%
  External/internal regiospecificity (uncorrected ratio of areas acylated mononucleosides / acylated dinucleotides): 52/48

## CCN1/C(=C\C=C\C2=[N+](CCCCCC(=O)Nc3ccc4[nH]c(=O)oc(=O)c4c3)c3ccc(S(=O)(=O)[O-])cc3C2(C)C)C(C)(C)c2cc(S(=O)(=O)O)ccc21 [Cy3 IA 7, 5-Cy3 isatoic anhydride]
physchem
  solubility: > 100 mM
[1]
  Fr (corrected functionalisation rate): 2.6%
  External/internal regiospecificity (uncorrected ratio of areas acylated mononucleosides / acylated dinucleotides): 61/39

## CC(=O)Nc1ccc2c(c1)c(=O)oc(=O)n2CC(=O)NCCOCCOCCNC(=O)CCCCC1SCC2NC(=O)NC21 (stereo not shown) [N(Biot PEG2) acetamido IA 19, 1-biotin-diethyleneglycol-5-acetamido-isatoic anhydride]
[1]
  Fr (corrected functionalisation rate): 1.2%
  External/internal regiospecificity (uncorrected ratio of areas acylated mononucleosides / acylated dinucleotides): 50/50

## O=C(CCCCC1SCC2NC(=O)NC21)NCCOCCOCCNC(=O)Cn1c(=O)oc(=O)c2ccccc21 (stereo not shown) [N(Biot PEG2)IA 18, 1-biotin-ethylene glycol-isatoic anhydride]
[1]
  Fr (corrected functionalisation rate): 3.4%
  External/internal regiospecificity (uncorrected ratio of areas acylated mononucleosides / acylated dinucleotides): 56/44

## O=C(CCCCCn1c(=O)oc(=O)c2ccccc21)NCCCOCCOCCOCCCNC(=O)CCCCC1SCC2NC(=O)NC21 (stereo not shown) [N(Biot PEG4) IA 21, N-(N-(biotin-dPEG3-propyl)-6-bromohexanamide) isatoic anhydride]
[1]
  Fr (corrected functionalisation rate): 0.7%
  External/internal regiospecificity (uncorrected ratio of areas acylated mononucleosides / acylated dinucleotides): 49/51
